According to patent US8841413B2, “Antidiabetic compounds” (Cadila Healthcare Limited, priority 2006, dated 2014):

Assays:
[1] = system: RIN5F (Rat Insulinoma) cells; experiment: In vitro glucose-dependent insulin secretion (RIN5F cell assay); format: cell-based; conditions: 16.7 mM glucose load, mean ± S.D., n = 3
Description: After trypsinization, RIN5F cells were seeded at a concentration of 0.2×10^6·cells per well, in 12 well plates.
The supernatant was collected and the insulin amount was measured by ultra sensitive Rat insulin ELISA kit (Crystal Chem, Ill.). The protein was estimated in the supernatant using Bicinchoninic Acid kit, according to the manufacturer's protocol (Sigma Aldrich, Mo.). The total insulin content obtained in Pico-gram (pg) was divided with the total protein (μg) in order to normalize for differences in cell density between wells.

[2] = target: T1, human glucagon receptor (Homo sapiens, UniProt P47871); experiment: In vitro human glucagon antagonist activity (inhibition of cAMP production), CHO/human glucagon R cells; format: cell-based
T1 construct: The full-length cDNA was cloned in pcDNA3.1(Invitrogen); expressed in transfected cells
T1 sequence (P47871 26-477): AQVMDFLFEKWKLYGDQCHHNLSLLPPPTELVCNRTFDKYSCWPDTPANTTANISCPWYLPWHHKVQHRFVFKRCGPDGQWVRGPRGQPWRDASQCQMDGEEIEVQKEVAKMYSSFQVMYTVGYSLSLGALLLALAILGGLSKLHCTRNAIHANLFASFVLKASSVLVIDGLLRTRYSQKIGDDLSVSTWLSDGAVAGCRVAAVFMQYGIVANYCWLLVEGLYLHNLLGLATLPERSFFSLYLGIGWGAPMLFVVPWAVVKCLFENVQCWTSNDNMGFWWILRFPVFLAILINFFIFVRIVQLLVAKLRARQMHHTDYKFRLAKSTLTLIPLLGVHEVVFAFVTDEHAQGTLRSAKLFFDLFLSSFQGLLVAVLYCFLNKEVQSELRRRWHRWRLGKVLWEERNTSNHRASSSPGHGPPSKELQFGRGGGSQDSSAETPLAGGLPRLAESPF

[3] = target: DPP IV (Homo sapiens, UniProt P27487); experiment: Stability against DPP IV enzyme; format: in vitro ADME; conditions: for % degradation in 24 h when incubated with DPP-IV enzyme: 2 μM, 37° C.; for half-life at 2 μM: DPP IV enzyme, pH 7.8, 37° C., read-out: half-life (t1/2) with DPP-IV enzyme
Chain of DPP IV (P27487 whole entry, species assumed): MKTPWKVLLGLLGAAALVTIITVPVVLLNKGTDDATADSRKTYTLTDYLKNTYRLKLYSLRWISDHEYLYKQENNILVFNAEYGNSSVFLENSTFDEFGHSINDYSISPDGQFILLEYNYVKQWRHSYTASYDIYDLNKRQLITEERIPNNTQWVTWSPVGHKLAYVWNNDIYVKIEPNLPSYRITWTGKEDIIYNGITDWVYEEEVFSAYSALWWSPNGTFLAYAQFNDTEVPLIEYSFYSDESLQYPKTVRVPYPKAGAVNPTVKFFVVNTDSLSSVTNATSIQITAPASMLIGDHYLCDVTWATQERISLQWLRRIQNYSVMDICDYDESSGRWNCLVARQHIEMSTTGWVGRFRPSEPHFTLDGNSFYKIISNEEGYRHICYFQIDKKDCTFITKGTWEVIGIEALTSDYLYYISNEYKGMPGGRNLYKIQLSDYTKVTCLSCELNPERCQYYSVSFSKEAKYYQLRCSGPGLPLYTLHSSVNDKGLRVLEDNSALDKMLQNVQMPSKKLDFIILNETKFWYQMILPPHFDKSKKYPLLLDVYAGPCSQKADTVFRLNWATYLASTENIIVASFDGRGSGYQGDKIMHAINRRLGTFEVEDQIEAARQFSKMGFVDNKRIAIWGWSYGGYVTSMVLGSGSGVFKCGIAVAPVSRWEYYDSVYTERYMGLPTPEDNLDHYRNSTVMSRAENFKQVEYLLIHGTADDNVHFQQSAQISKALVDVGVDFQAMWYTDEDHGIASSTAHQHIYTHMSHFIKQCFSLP
Method in brief: (§1)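 Samples are acid-quenched with TFA/H2O at 10% (v/v) before chromatographic analysis. The mobile phase runs at 1 mL/min over a column conditioned in TFA/H2O, and the UV trace is recorded at 206 nm. Each peak is picked by hand and characterised by ESI mass spectrometry.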

[4] = Stability in human plasma; format: in vitro ADME; conditions: for half-life (t1/2) in human plasma / % degradation in 24 h when incubated with human plasma: 2 μM, 37° C.; for half-life at 2 μM: human, pooled human plasma, pH 7.8, 37° C., read-out: half-life (t1/2) in human plasma
Method in brief: as §1

[5] = Stability in simulated gastric fluid; format: in vitro ADME; conditions: 37° C., pH 1.5, pepsin; for % degradation in 24 h when incubated with simulated gastric fluid / half-life (t1/2) in simulated gastric fluid: 2 μM; for half-life at 2 μM: simulated gastric fluid with pepsin, read-out: half-life (t1/2) in simulated gastric fluid
Method in brief: as §1

[6] = Stability in simulated intestinal fluid; format: in vitro ADME; conditions: 37° C.; for % degradation in 24 h when incubated with simulated intestinal fluid / half-life (t1/2) in simulated intestinal fluid: 2 μM, pH 7.5; for half-life at 2 μM: simulated intestinal fluid, pH 7.5, read-out: half-life (t1/2) in simulated intestinal fluid
Method in brief: as §1

[7] = Stability against liver microsomes; format: in vitro ADME, human; conditions: for % degradation in 24 h when incubated with liver microsomes: 2 μM, 37° C.; for half-life at 2 μM: human, human liver microsomes, pH 7.8, 37° C., read-out: half-life (t1/2) with liver microsomes
Method in brief: as §1

[8] = 1 nM test compound (fourth concentration column, between 100 nM and 10 μM) with saturated concentration of glucagon peptide
[9] = 1 nM test compound with saturated concentration of glucagon peptide
[10] = 10 nM test compound with saturated concentration of glucagon peptide
[11] = 100 nM test compound with saturated concentration of glucagon peptide
[12] = 10 μM test compound with saturated concentration of glucagon peptide

SMILES	Insulin secretion ([1]; 0.1 nM test compd.) [pg/µg/h]	Insulin secretion ([1]; 1 nM test compd.) [pg/µg/h]	Insulin secretion ([1]; 10 nM test compd.) [pg/µg/h]	Human Glucagon receptor antagonistic activity, inhibition of cAMP production of Glucagon peptide [2, 8] [pmol/ml/μg prt]	Human Glucagon receptor antagonistic activity, inhibition of cAMP production of Glucagon peptide [2, 9] [pmol/ml/μg prt]	Human Glucagon receptor antagonistic activity, inhibition of cAMP production of Glucagon peptide [2, 10] [pmol/ml/μg prt]	Human Glucagon receptor antagonistic activity, inhibition of cAMP production of Glucagon peptide [2, 11] [pmol/ml/μg prt]	Human Glucagon receptor antagonistic activity, inhibition of cAMP production of Glucagon peptide [2, 12] [pmol/ml/μg prt]	% degradation in 24 h when incubated with DPP-IV enzyme [3] [%]	half-life (t1/2) in human plasma [4]	% degradation in 24 h when incubated with human plasma [4] [%]	% degradation in 24 h when incubated with simulated gastric fluid [5] [%]	half-life at 2 μM [5] [h]	% degradation in 24 h when incubated with simulated intestinal fluid [6] [%]	% degradation in 24 h when incubated with liver microsomes [7] [%]	half-life at 2 μM [7] [h]	half-life at 2 μM [3] [h]	half-life at 2 μM [4] [h]	half-life (t1/2) in simulated gastric fluid [5]	half-life (t1/2) in simulated intestinal fluid [6]	also measured
CCc1cc(OC)ccc1-c1ccc(CC(NC(=O)[C@H](CC(=O)O)NC(=O)[C@H](CO)NC(=O)[C@@H](NC(=O)[C@H](Cc2ccccc2)NC(=O)[C@@H](NC(=O)CNC(=O)[C@H](CCC(N)=O)NC(=O)[C@H](CO)NC(=O)[C@@H](N)Cc2c[nH]cn2)[C@@H](C)O)[C@@H](C)O)C(=O)NC(Cc2ccc(-c3ccccc3C(F)(F)F)cc2)C(N)=O)cc1 (single isomer, unassigned) [compound 8]	12.6 ± 0.20	15.9 ± 0.31	28.4 ± 0.11	0	4 ± 0.01	2 ± 0.17	0	0	76	(9) h	78	100	0.5	100	100	0.5	–	–	–	–	half-life at 2 μM [6]: 0.5 h
CCc1cc(OC)ccc1-c1ccc(CC(NC(=O)[C@H](CC(=O)O)NC(=O)[C@H](CO)NC(=O)[C@@H](NC(=O)C(C)(Cc2ccccc2F)NC(=O)[C@@H](NC(=O)CNC(=O)[C@H](CCC(N)=O)NC(=O)[C@H](C)NC(=O)[C@@H](N)Cc2c[nH]cn2)[C@@H](C)O)[C@@H](C)O)C(=O)NC(Cc2ccc(-c3ccccc3C(F)(F)F)cc2)C(N)=O)cc1 (single isomer, unassigned) [compound 28]	12.0 ± 0.14	14.3 ± 0.12	27.8 ± 0.32	0	4 ± 0.06	3 ± 0.11	0	0	72	–	70	12	–	42	78	1	9	8	(8) h	(6) h	–
CCc1cc(OC)ccc1-c1ccc(CC(NC(=O)[C@H](CC(=O)O)NC(=O)[C@H](CO)NC(=O)[C@@H](NC(=O)C(C)(Cc2ccccc2F)NC(=O)[C@@H](NC(=O)CNC(=O)[C@H](CCC(N)=O)NC(=O)[C@H](C)NC(=O)[C@@H](N)Cc2c[nH]cn2)[C@@H](C)O)[C@@H](C)O)C(=O)NC(Cc2ccc(-c3ccccc3C)nc2)C(N)=O)cc1 (single isomer, unassigned) [compound 26]	12.1 ± 0.51	14.1 ± 0.19	28.1 ± 0.29	4 ± 0.01	15 ± 0.11	12 ± 0.13	8 ± 0.09	2 ± 0.08	70	–	71	14	–	40	78	1	9	8	(8) h	(6) h	–
CCc1cc(OC)ccc1-c1ccc(CC(NC(=O)[C@H](CC(=O)O)NC(=O)[C@H](CO)NC(=O)[C@@H](NC(=O)[C@H](Cc2ccccc2)NC(=O)[C@@H](NC(=O)CNC(=O)[C@H](CCC(N)=O)NC(=O)[C@H](C)NC(=O)[C@@H](N)Cc2c[nH]cn2)[C@@H](C)O)[C@@H](C)O)C(=O)NC(Cc2ccc(-c3ccccc3C)nc2)C(N)=O)cc1 (single isomer, unassigned) [compound 10]	12.7 ± 0.21	15.8 ± 0.33	29.3 ± 0.19	4 ± 0.01	15 ± 0.11	12 ± 0.13	8 ± 0.09	2 ± 0.08	70	(9) h	71	100	0.5	100	100	0.5	–	–	–	–	half-life at 2 μM [6]: 0.5 h
CCc1cc(OC)ccc1-c1ccc(CC(NC(=O)[C@H](CC(=O)O)NC(=O)[C@H](CO)NC(=O)[C@@H](NC(=O)C(C)(Cc2ccccc2F)NC(=O)[C@@H](NC(=O)CNC(=O)[C@H](CCC(N)=O)NC(=O)[C@H](CO)NC(=O)[C@@H](N)Cc2c[nH]cn2)[C@@H](C)O)[C@@H](C)O)C(=O)NC(Cc2ccc(-c3ccccc3C)cc2)C(N)=O)cc1 (single isomer, unassigned) [compound 21]	12.3 ± 0.33	14.1 ± 0.36	28.0 ± 0.16	14 ± 0.02	19 ± 0.03	17 ± 0.08	15 ± 0.01	12 ± 0.11	76	–	78	12	–	55	79	1	9	8	(8) h	(6) h	–
CCc1cc(OC)ccc1-c1ccc(CC(NC(=O)[C@H](CC(=O)O)NC(=O)[C@H](CO)NC(=O)[C@@H](NC(=O)C(C)(Cc2ccccc2F)NC(=O)[C@@H](NC(=O)CNC(=O)[C@H](CCC(N)=O)NC(=O)[C@H](CO)NC(=O)[C@@H](N)Cc2c[nH]cn2)[C@@H](C)O)[C@@H](C)O)C(=O)NC(Cc2ccc(-c3ccccc3C)nc2)C(N)=O)cc1 (single isomer, unassigned) [compound 22]	12.1 ± 0.42	14.6 ± 0.41	27.8 ± 0.46	18 ± 0.03	21 ± 0.11	19 ± 0.02	18 ± 0.07	16 ± 0.02	75	–	77	14	–	45	81	1	9	8	(8) h	(6) h	–
